Experiment [1] relates to DLA. The experiment in a line: Antitumor activity in mouse DLA cells xenografted Swiss albino mouse assessed as inhibition of tumor cell proliferation at 1 mg/kg, po administered after 7 days of tumor induction measured each 3 days upto 31 days. It counts as functional, organism-based. Also on record: dose 1 mg/kg.
Experiment [2] concerns DLA. The experiment in a line: Antiproliferative activity against mouse DLA cells assessed as radiolabeled thymidine incorporation at 10 to 200 ug after 24 hrs by liquid scintillation counter. The class given is functional, cell-based.

The source made the active and inactive calls. The rule behind the calls is not given here.

`COC1(c2ccccc2)OC(c2ccccc2)=C(c2ccccc2)C1=O` (centres undefined): the outcome in the experiment on DLA [1] and with DLA [2] was Active.
Take `CC(=O)OC1(c2ccccc2)OC(c2ccccc2)=C(c2ccccc2)C1=O` (centres undefined): the outcome with DLA [1] and with DLA [2] was Active.

These data come from ChEMBL document CHEMBL1143330, “Preliminary investigations on the synthesis and antitumor activity of 3(2H)-furanones” (Bioorg Med Chem Lett, 2009).
